The source of these data is patent US11858934B1, “Substituted pyrido[4′,3′:5,6]pyrimido[1,2-a]indoles as CK2 inhibitors” (KING FAISAL UNIVERSITY, priority 2023, dated 2024).

The subject of one experiment is MIAPaCa-2 (pancreas). The experiment is described as follows: MTT in vitro cytotoxic activity assay, MIAPaCa-2. To be noted: Homo sapiens, MIA PaCa-2; MIAPaCa-2 (pancreas) cells, exposed for 96 hours; read-out: IC50, 50% inhibition of cell proliferation. It counts as cell-based. How it is done:
(§1) Compounds 1-12 were screened for their in vitro cytotoxic activity utilizing a 3-(4,5-dimethyl-thiazol-2-yl)-2,5-diphenyltetrazolium bromide (MTT) assay against selected cancer human cell lines consisting of PC3 (prostate), HCT116 (colon), A375 (melanoma), H1299 (lung), MIAPaCa-2 (pancreas), HL60 (leukemia), MCF7 (breast), MDA-MB-231 (breast) (T. Mosmann, J. Immunol. Meth., 1983, 65, 55-63). The cells were cultured at 37° C. in RMPI1640 medium supplemented with 10% fetal bovine serum, 50 IU/mL penicillin, and 50 μg/mL streptomycin in a 5% CO2 incubator. All cells were sub-cultured 3 times/week by trypsinisation. Viable cells were seeded and allowed to adhere for 12 h before a test drug was added in 96-well plates at an initial density of 1.0×10^5 cells/mL. Tumour cell lines were separately exposed to various concentrations of the tested compounds followed by incubation at a temperature of 37° C. during 96 h inside a medium of fresh RMPI 1640. Cells were subsequently incubated at 37° C. using MTT at 0.5 mg/mL during 4 h. After removal of supernatant, formazan crystals were dissolved in isopropanol and the optical density was measured at 570 nm. CX-4945 was used as a positive control.

A further experiment concerns HL60 (leukemia). The experiment is described as follows: MTT in vitro cytotoxic activity assay, HL60. The conditions noted are these: Homo sapiens, HL-60; HL60 (leukemia) cells, exposed for 96 hours; read-out: IC50, 50% inhibition of cell proliferation. Type of experiment: cell-based. How it is done:
as §1

Another experiment has as its system A375 (melanoma). The experiment is described as follows: MTT in vitro cytotoxic activity assay, A375. Type of experiment: cell-based. To be noted: Homo sapiens, A-375; A375 (melanoma) cells, exposed for 96 hours; read-out: IC50, 50% inhibition of cell proliferation. How it is done:
as §1

The subject of a further experiment is MCF7 (breast). The experiment is described as follows: MTT in vitro cytotoxic activity assay, MCF7. Type of experiment: cell-based. To be noted: Homo sapiens; MCF7 (breast) cells, exposed for 96 hours; read-out: IC50, 50% inhibition of cell proliferation. As to the method:
as §1

The subject of the next experiment is PC3 (prostate). Nature of the experiment: MTT in vitro cytotoxic activity assay, PC3. Type of experiment: cell-based. To be noted: Homo sapiens, Prostate cell; PC3 (prostate) cells, exposed for 96 hours; read-out: IC50, 50% inhibition of cell proliferation. How it is done: as §1
A further experiment has as its system H1299 (lung). The experiment is described as follows: MTT in vitro cytotoxic activity assay, H1299. Type of experiment: cell-based. The conditions noted are these: Homo sapiens, NCI-H1299; H1299 (lung) cells, exposed for 96 hours; read-out: IC50, 50% inhibition of cell proliferation. How it is done:
as §1

A further experiment has as its target T1, recombinant human CK2 (Homo sapiens, UniProt P68400).
T1 construct: purchased Millipore
Nature of the experiment: CK2 kinase assay (33P-ATP, substrate peptide RRRDDDSDDD). Type of experiment: biochemical. The conditions noted are these: final ATP concentration 15 μM, 10 min at 30° C; read-out: IC50, protein kinase CK2 activity. How it is done: CK2 Kinase Assay was conducted using the protocol as described in Pierre F. et al; J. Med. Chem. 2011, 54, 635-654. The tested compounds in aqueous solution were added at a volume of 10 μL to a reaction mixture comprising 10 μL of assay dilution buffer (ADB; 20 mM MOPS, pH 7.2, 25 mM (β-glycerol phosphate, 5 mM EGTA, 1 mM sodium orthovanadate, and 1 mM dithiothreitol), 10 μL of substrate peptide (RRRDDDSDDD, dissolved in ADB at a concentration of 1 mM), 10 μL of recombinant human CK2 (RRfββ-holoenzyme, 25 ng dissolved in ADB; Millipore). Reactions were initiated by the addition of 10 μL of ATP solution (90% 75 mMMgCl2, 75 μM ATP (final ATP concentration: 15 μM) dissolved in ADB; 10% [γ-33P] ATP (stock 1 mCi/100 μL; 3000 Ci/mmol (Perkin-Elmer) and maintained for 10 min at 30° C. The reactions were quenched with 100 μL of 0.75% phosphoric acid and then transferred to and filtered through a phosphor cellulose filter plate (Millipore). After washing each well five times with 0.75% phosphoric acid, the plate was dried under vacuum for 5 min and, following the addition of 15 μL of scintillation fluid to each well, the residual radioactivity was measured using a Wallac luminescence counter. The IC50 values were derived from eight concentrations of test inhibitors.

For the next experiment, the system named is MDA-MB-231 (breast). The experiment is described as follows: MTT in vitro cytotoxic activity assay, MDA-MB-231. The conditions noted are these: Homo sapiens; MDA-MB-231 (breast) cells, exposed for 96 hours; read-out: IC50, 50% inhibition of cell proliferation. Type of experiment: cell-based. How it is done: as §1
For another experiment, the system named is HCT116 (colon). The experiment is described as follows: MTT in vitro cytotoxic activity assay, HCT116. Type of experiment: cell-based. To be noted: Homo sapiens, HCT-116; HCT116 (colon) cells, exposed for 96 hours; read-out: IC50, 50% inhibition of cell proliferation. How it is done: as §1

T1 sequence (P68400 whole entry): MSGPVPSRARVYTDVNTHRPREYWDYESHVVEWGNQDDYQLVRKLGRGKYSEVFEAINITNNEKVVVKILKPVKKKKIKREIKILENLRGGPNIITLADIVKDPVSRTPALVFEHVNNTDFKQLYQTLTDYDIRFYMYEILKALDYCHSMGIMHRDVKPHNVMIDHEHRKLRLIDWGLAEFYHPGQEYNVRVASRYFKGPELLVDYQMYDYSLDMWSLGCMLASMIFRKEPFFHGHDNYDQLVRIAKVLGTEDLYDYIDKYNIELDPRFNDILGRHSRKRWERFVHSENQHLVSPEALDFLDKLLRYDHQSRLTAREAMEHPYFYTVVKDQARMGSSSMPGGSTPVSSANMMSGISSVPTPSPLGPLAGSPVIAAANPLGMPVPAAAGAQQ
T1 sequence (P67870 whole entry partner): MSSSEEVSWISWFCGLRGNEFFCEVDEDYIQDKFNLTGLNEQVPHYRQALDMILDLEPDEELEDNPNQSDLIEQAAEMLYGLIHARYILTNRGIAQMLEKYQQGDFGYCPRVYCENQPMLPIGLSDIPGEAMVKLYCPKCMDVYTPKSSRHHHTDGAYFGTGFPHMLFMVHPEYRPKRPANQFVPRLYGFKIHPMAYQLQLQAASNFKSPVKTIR

Regarding `O=C(O)c1ccc2c(c1)cc1nc(Nc3cccc(Cl)c3)c3ccncc3n12` [Compound 1, 5-((3-chlorophenyl)amino)pyrido[4′,3′:5,6]pyrimido[1,2-a]indole-9-carboxylic acid], the IC50 with MIAPaCa-2 (pancreas) worked out at 1400 nM; in the experiment on HL60 (leukemia), 3300 nM; in the experiment with A375 (melanoma) it was 3500 nM; with MCF7 (breast), 6900 nM; in the experiment on PC3 (prostate), 2200 nM; in the experiment with H1299 (lung), 1900 nM. For the same molecule, the IC50 at recombinant human CK2 turned out to be 15 nM; in the experiment on MDA-MB-231 (breast), 5500 nM; in the experiment on HCT116 (colon), 1800 nM.
